These are literature values, as cited in US20050013753A1, “Heat-transfer systems” (priority 2003, published 2005).

Read-outs that look alike come from different tables or passages of the source.

Series [1] deals with rats. The note with it: repeated inhalation exposure.
Series [2] relates to bacterial cells. Conditions: in vitro.
Series [3] concerns mammalian cells. The note with it: in vitro.
Series [4] relates to rats. Conditions: in rats; DuPont MSDS.
Series [5] relates to mouse. The note with it: in vivo mouse.
The conditions of series [6]: DuPont MSDS.
The conditions of series [7]: animal data; DuPont MSDS.
The conditions of series [8]: in water; DuPont MSDS.
The test system of series [9] is rats.
For series [10] the following is noted: animal data; DuPont MSDS. This is another data set of the same source.
The subject of series [11] is rabbits. The note with it: in rabbits; DuPont MSDS.
The conditions of series [12]: animal data; DuPont MSDS. This is another data set of the same source.
Series [13] concerns rats. The note with it: in rats, DuPont MSDS.
The test system of series [14] is mammalian cells.
The conditions of series [15]: animal data.

Turning to `OCCCO` [1,3-Propanediol, 1,3-propanediol], the “Changes in clinical pathology, pathology, or in-life measurements” value in [1] is on record as “no toxicologically important changes”. Moreover, the NOEL is given as 1800 mg/m3 in series [1] and 1000 mg/kg/day in series [9] (rats, repeated oral gavage, highest dose tested). Besides, the Mutagenicity entry in series [2] and in [3] was “not mutagenic” throughout. The “Oral LD50” value in [4] is recorded as 15,000 mg/kg. In addition, in series [5], the Micronucleus assay result is given as “negative”. The “Chemical Stability” value in series [6] was “Chemical Stability: Stable at normal temperatures and storage conditions”. Besides, the Skin sensitization result in series [7] was “not a skin sensitizer”. Further, the pH result in series [8] is listed as “pH: 4.5-7 in water. Color: Colorless”. In addition, in [9] (oral repeated dose study in rats), the “Adverse effects to sperm and reproductive organs” value is “no adverse effects to sperm and reproductive organs were observed”. Besides, the “Changes in clinical pathology, pathology (including sperm analyses), or in-life measurements” value in [9] (rats, repeated oral gavage) was “no toxicologically important changes”. Moreover, in series [10], the Skin irritation result is recorded as “slight skin irritant”. For the same compound, in [11], the “Dermal LD50” value is reported as > 20,000 mg/kg. For the same compound, in [12], the Eye irritation entry is listed as “not an eye irritant”. In addition, the “Inhalation 4 hour ALC” value in series [13] is reported as “Inhalation 4 hour ALC: >5.0 mg/L in rats”. In series [14] (1,3-propanediol manufactured by DuPont), the “Chromosome aberrations, repeat study” value is “negative for all test conditions”. For the same compound, the Chromosome aberrations result in series [14] (under certain conditions) was “An increase in chromosome aberrations was observed”. Also, the “Toxicity to the fetus” value in series [15] is on record as “not uniquely toxic to the fetus”.
